Assay results published in patent US20100048530A1, “New 2-Azetidinone Derivatives As Cholesterol Absorption Inhibitors For The Treatment Of Hyperlipidaemic Conditions” (ASTRAZENECA AB, priority 2005, published 2010).

Tested on: C57BL/6 female mice
Test: In vivo testing of cholesterol absorption inhibitors (A)
Details: 0.2 μmol/kg, gavage, procedure A
Description: In Vivo Testing of Cholesterol Absorption Inhibitors (A)
C57BL/6 female mice were maintained on regular chow diet and housed in individual cages to collect faeces. Mice were fasted for 3 hours and then gavaged with vehicle or compound. Half an hour later the mice were gavaged with radiolabelled cholesterol. Six hours after the ^14C-cholesterol gavage blood samples were taken via the tail and plasma prepared to determine how much cholesterol were absorbed. 24 hours after the gavage of ^14C-cholesterol the mice were bled and plasma were prepared for analysis. Faeces were collected for 24 hours to assess absorption efficiency.

## O=C(O)CNC(=O)[C@@H](CC1CCCCC1)NC(=O)CNC(=O)COc1ccc([C@@H]2[C@@H](SCC(O)c3ccc4c(c3)OCCO4)C(=O)N2c2ccc(F)cc2)cc1 (stereo partly drawn) [Example 1, N-({4-[(2R,3R)-3-{[2-(2,3-dihydro-1,4-benzodioxin-6-yl)-2-hydroxyethyl]thio}-1-(4-fluorophenyl)-4-oxoazetidin-2-yl]phenoxy}acetyl)glycyl-3-cyclohexyl-D-alanylglycine]
  inhibition of 14C-cholesterol absorption: 43%
